In ChEMBL document CHEMBL3596143, “Identification of tanshinone IIA as a natural monoacylglycerol lipase inhibitor by combined in silico and in vitro approach” (Medchemcomm, 2014):

Columns and labels:
[1] = biological target: T1, Monoglyceride lipase (Homo sapiens) (UniProt Q99685); experiment: Inhibition of MAGL (unknown origin) at […] after 10 mins relative to control
T1 sequence (whole entry): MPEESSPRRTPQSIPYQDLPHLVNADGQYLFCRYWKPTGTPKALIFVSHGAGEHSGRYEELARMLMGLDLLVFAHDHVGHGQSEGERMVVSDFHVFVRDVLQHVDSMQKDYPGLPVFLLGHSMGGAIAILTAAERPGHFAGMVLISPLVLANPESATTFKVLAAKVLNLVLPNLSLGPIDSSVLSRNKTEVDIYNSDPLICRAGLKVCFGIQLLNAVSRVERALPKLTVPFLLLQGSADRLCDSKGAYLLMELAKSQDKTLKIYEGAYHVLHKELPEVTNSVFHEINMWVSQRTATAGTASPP

[2] = biological target: T1, Monoglyceride lipase (Homo sapiens); experiment: Inhibition of MAGL (unknown origin) at 125 uM after 10 mins relative to control
[3] = biological target: T1, Monoglyceride lipase (Homo sapiens); experiment: Inhibition of MAGL (unknown origin) at 250 uM after 10 mins relative to control
[4] = biological target: T1, Monoglyceride lipase (Homo sapiens); experiment: Inhibition of MAGL (unknown origin) at 500 uM after 10 mins relative to control
[5] = biological target: T1, Monoglyceride lipase (Homo sapiens); experiment: (§1) Inhibition of MAGL (unknown origin) after 10 mins
[6] = biological target: T2, Monoglyceride lipase (Homo sapiens, UniProt Q99685); experiment: as §1
T2 sequence (Q99685 whole entry): T1 sequence (whole entry)

[7] = biological target: T1, Monoglyceride lipase (Homo sapiens); settings: 2 mM
Description: Inhibition of MAGL (unknown origin) at 2 mM after 10 mins relative to control

## Cc1coc2c1C(=O)C(=O)c1c-2ccc2c1CCCC2(C)C [TANSHINONE IIA]
[1]
  inhibition: 95%
[2]
  inhibition: 72%
[3]
  inhibition: 79%
[4]
  inhibition: 85%
[5]
  inhibition: Dose-dependent effect
[6]
  IC50: 48 µM

## CC1(C)CC[C@]2(C(=O)O)CC[C@]3(C)C(=CC[C@@H]4[C@@]5(C)CC[C@H](O)C(C)(C)[C@@H]5CC[C@]43C)[C@@H]2C1
[1]
  inhibition: 1%

## CC1(C)OC(=O)C=C[C@]2(C)[C@H]3CC[C@@]4(C)[C@H](c5ccoc5)OC(=O)[C@H]5O[C@]54[C@]3(C)C(=O)C[C@@H]12
[1]
  inhibition: 4%

## Cc1coc2c1C(=O)C(=O)c1c-2ccc2c(C)cccc12
[1]
  inhibition: 58%
[2]
  inhibition: 12%
[3]
  inhibition: 15%
[4]
  inhibition: 31%

## O=C(Oc1ccc([N+](=O)[O-])cc1)N1CCC(C(O)(c2ccc3c(c2)OCO3)c2ccc3c(c2)OCO3)CC1
[7]
  inhibition: 94%

## O=c1c(-c2ccc(O)cc2)coc2c([C@@H]3O[C@H](CO)[C@@H](O)[C@H](O)[C@H]3O)c(O)ccc12
[1]
  inhibition: 52%
